Test results: PubChem BioAssay (NCI)
Values joined by “and” are separate entries in the source; they are usually repeats but may differ in a detail not shown here. Identical values can stand only once.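 The compound was tested at five concentrations on cells cultured in 96-well plates, with a 48-hour exposure period. GI50 is the concentration that inhibits growth by half. TGI marks complete inhibition of growth.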

Tests used:
Experiment in all cases: NCI-60 cell line screen, 48 h
HL-60(TB) leukemia = test system: HL-60(TB) leukemia
HT29 colon = test system: HT29 colon
SN12C renal = test system: SN12C renal
SR leukemia = test system: SR leukemia
KM12 colon = test system: KM12 colon
A549 NSCLC = test system: A549 NSCLC
SNB-75 CNS = test system: SNB-75 CNS
SNB-19 CNS = test system: SNB-19 CNS
UO-31 renal = test system: UO-31 renal
SK-MEL-28 melanoma = test system: SK-MEL-28 melanoma

SMILES	TGI (HL-60(TB) leukemia)	TGI (HT29 colon)	TGI (SN12C renal)	TGI (SR leukemia)	TGI (KM12 colon)	TGI (A549 NSCLC)	TGI (SNB-75 CNS)	TGI (SNB-19 CNS)	TGI (UO-31 renal)	TGI (SK-MEL-28 melanoma)	GI50 (HL-60(TB) leukemia)	GI50 (HT29 colon) [nM]	GI50 (SN12C renal) [nM]	GI50 (SR leukemia) [nM]	GI50 (KM12 colon) [nM]	GI50 (A549 NSCLC) [nM]	GI50 (SNB-75 CNS) [nM]	GI50 (SNB-19 CNS)	GI50 (UO-31 renal) [nM]	GI50 (SK-MEL-28 melanoma)
CC1=C(C(=O)Nc2ccccc2C)C(c2ccccc2C)C(C(=O)Nc2ccccc2C)=C(C)N1	46.5 µM	43 µM	35.8 µM	65.4 µM	37.8 µM	> 100 µM	59.2 µM	56.9 µM	30.2 µM	42.5 µM	–	–	–	–	–	–	–	–	–	–
O=C(CC(=O)c1ccccc1)C(=O)NC12CC3CC(CC(C3)C1)C2	> 69.1 µM	> 100 µM	> 100 µM	> 100 µM	> 100 µM	> 100 µM	> 100 µM	> 100 µM	> 100 µM	> 100 µM	–	–	–	–	–	–	–	–	–	–
O=C1NN=C(c2ccc([N+](=O)[O-])cc2)C1n1nc(-c2ccccc2)c2ccccc2c1=O (stereo not given)	> 64.4 µM	> 100 µM	> 100 µM	> 100 µM	> 100 µM	> 100 µM	> 100 µM	> 100 µM	> 100 µM	> 100 µM	–	–	–	–	–	–	–	–	–	–
Cc1ccc(-c2c3c(N)c4c(nc3nc3c2c(C)nn3-c2ccccc2)CCC4)cc1	4.67 µM	10.9 µM	3.74 µM	9.61 µM	16 µM	7.49 µM	6.66 µM	18 µM	3.94 µM	9.69 µM	2070 nM	5070	1830	472	4400	2500	2070	3.85 µM	1870	4440 nM
O=C1C=C(OCCCl)C(=O)c2c(O)ccc(O)c21	2.58 µM and 1.17 µM	1.03 µM and 2.89 µM	0.526 µM and 3.03 µM	3.22 µM	4.38 µM and 20.6 µM	0.686 µM and 3.41 µM	0.97 µM and 3.74 µM	2.56 µM	2.76 µM and 4.5 µM	–	230 nM	1120	1580	–	6400	1630	2100	–	1950	2080 nM
COc1cc2nncc(SCc3ccc(Cl)c(Cl)c3)c2cc1OC	> 100 µM	> 100 µM	> 100 µM	> 100 µM	> 100 µM	> 100 µM	73 µM	> 100 µM	> 100 µM	> 100 µM	–	–	–	–	–	–	–	–	–	–
CN(C)c1ncnc2c1ccn2C1OC(CO)C(O)C1O (stereo not given)	1.89 µM	> 100 µM	> 100 µM	> 100 µM	> 100 µM	> 100 µM	22.5 µM	> 100 µM	13.7 µM	> 100 µM	316 nM	1470	2620	13800	34900	13600	1640	44.5 µM	1370	> 100000 nM
NCCSC(C[N+](=O)[O-])c1ccccc1Cl (stereo not given)	> 23.3 µM	10.9 µM	21.9 µM	> 100 µM	3.42 µM	15.5 µM	16.9 µM	11.5 µM	10.1 µM	4.6 µM	3380 nM	3150	7330	3050	1820	4870	4220	3.38 µM	3460	2080 nM
CC(C)=CCc1cc(C2COc3cc4c(c(O)c3C2=O)C=CC(C)(C)O4)c(O)cc1O (stereo not given)	31.1 µM	31.6 µM	26.3 µM	24.1 µM	32.7 µM	27.9 µM	36 µM	40.7 µM	26 µM	50.4 µM	–	–	–	–	–	–	–	–	–	–
O=c1[nH]nc(-c2ccccc2)c2c(-c3ccccc3)onc12	–	> 100 µM	> 100 µM	–	> 39.6 µM	> 100 µM	> 21.9 µM	> 100 µM	> 100 µM	> 100 µM	291 nM	391	748	288	389	529	960	11.2 µM	592	793 nM
COc1cc2c3cc1Oc1c(OC)c(OC)cc4c1C(Cc1ccc(cc1)Oc1cc(ccc1O)CC3N(C)CC2)N(C)CC4 (stereo not given)	30.5 µM and 7.29 µM	20.9 µM and 14.1 µM	61.3 µM and 30.6 µM	8.98 µM and 7.5 µM	24.8 µM and 26.2 µM	39.6 µM and 25.2 µM	25.3 µM and 23.8 µM	72.7 µM and 24.7 µM	21.5 µM and 20.6 µM	25.9 µM and 26 µM	5610 nM and 1880 nM	–	–	–	–	–	–	28.6 µM and 12 µM	–	12900 nM and 5810 nM
CCc1c2c(nc3ccc(OCc4ccc(B5OC(C)(C)C(C)(C)O5)cc4)cc13)-c1cc3c(c(=O)n1C2)COC(=O)[C@]3(O)CC	–	> 100 µM	> 100 µM	> 100 µM	1.62 µM	> 100 µM	0.296 µM	> 100 µM	1.02 µM	> 100 µM	29.1 nM	115	< 10	< 10	137	60	18.3	< 0.01 µM	32.6	604 nM
CC1CC(=O)c2c(ccc3c2C(=O)c2cccc(O)c2C3=O)C1 (stereo not given)	18.1 µM	18.5 µM	–	35.9 µM	26.7 µM	26.4 µM	22.9 µM	26.1 µM	24.2 µM	26.6 µM	–	–	–	–	–	–	–	–	–	–
CN(C)N=Nc1nn(C(=O)Nc2ccc(Cc3ccccc3)cc2)c2ccccc12	> 100 µM	> 100 µM	> 100 µM	> 100 µM	> 100 µM	> 100 µM	> 100 µM	> 100 µM	> 79 µM	> 100 µM	25200 nM	3340	> 100000	> 100000	312	3900	85400	> 100 µM	3230	–
Cc1ccc([N+](=O)[O-])c2c(NCCC[N+](C)(C)[O-])ccnc12	> 100 µM	> 100 µM	> 100 µM	> 100 µM	> 100 µM	> 100 µM	> 100 µM	> 100 µM	> 100 µM	> 100 µM	–	–	–	–	–	–	–	–	–	–
C=C1C(=O)O[C@H]2[C@H]1CC/C(CNC(=O)/C=C/c1ccc(Cl)cc1Cl)=C\CC[C@@]1(C)O[C@@H]21	0.542 µM	2.49 µM	4.08 µM	1.89 µM	3.03 µM	5.46 µM	10.3 µM	14.2 µM	2.28 µM	2.93 µM	25.6 nM	841	1730	232	1620	2120	1740	3.24 µM	1030	1320 nM
